Measured values published in patent US9738600B2, “ROR gamma (RORγ) modulators” (LEAD PHARMA CEL MODELS IP B.V., priority 2013, dated 2017).

molecular target: T1, RORγ (Homo sapiens, UniProt P51449); assay: RORγ GAL4 reporter gene assay; conditions: mean pIC50, inhibition of RORγ (GAL4-RORγ-LBD) in 293FT cells, luciferase readout, overnight incubation
T1 sequence (P51449 269-508 limits assumed): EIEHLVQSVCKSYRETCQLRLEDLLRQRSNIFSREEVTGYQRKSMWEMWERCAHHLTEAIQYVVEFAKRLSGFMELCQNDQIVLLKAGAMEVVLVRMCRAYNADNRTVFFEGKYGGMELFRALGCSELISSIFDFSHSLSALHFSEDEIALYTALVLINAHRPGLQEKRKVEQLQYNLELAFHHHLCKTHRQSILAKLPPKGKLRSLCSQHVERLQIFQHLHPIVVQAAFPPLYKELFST
Excerpt: The RORγ ligand-binding domain (LBD) was fused to the yeast GAL4 DNA binding domain (DBD) and placed under the control of the human cytomegalovirus (CMV) immediate early promoter, using expression vector pFN26A (Promega) and standard recombinant DNA cloning methods.
To monitor the inhibitory effect of compounds on RORγ, a transcriptional reporter construct was used. The pGL4.35 vector (Promega) contains nine copies of the GAL4 Upstream Activator Sequence (UAS). This sequence drives the transcription of the luciferase reporter gene luc2P in response to binding of a fusion protein containing the GAL4 DNA binding domain, as for example expressed by the GAL4-RORγ-LBD and GAL4-VP16 expression vectors described above.
The day after transfection, cells were plated into 96 well plates, test compound was added and the plates were incubated overnight. Subsequently, the firefly luciferase activity was quantified using luciferase detection reagent and luminescence readout.
1500 μL of this reagent mixture was added to 5 μg of GAL4 fusion protein expression vector and 5 μg of the transcriptional reporter construct, and incubated at RT for 20 minutes.
Subsequently, the cells were washed with Phosphate Buffered Saline (PBS) (Lonza), after which the PBS was removed. To dissociate the cells, 1 ml of TrypLE Express (Invitrogen) was added to the flask, followed by incubation at RT until the cells visually started to detach. Cells were collected in 5 mL of assay medium (DMEM culture medium (Lonza), 10% dialyzed FBS (Invitrogen) and Pen/Strep (Lonza)) to achieve a single cell suspension. 10×10^6 cells were spun down and re-suspended in 10 mL of assay medium. Subsequently, the cell suspension was added to the transfection mix tube, and then transferred as a whole to a T75 flask (Greiner), followed by overnight (16-24 hours) incubation at 37° C. and 5% CO2.
For compound screening, the cells were harvested (as described above) and counted. […] 80 μL of cell suspension (60,000 cells) was plated per well into a white, flat bottom, tissue culture treated, 96 well screening plates (Greiner).
Test compounds were diluted, starting from a 10 mM dimethylsulfoxide (DMSO) stock solution, to serial dilutions in DMSO at 500× the final test concentration. Subsequently, these solutions were diluted to 5× the final test concentration in two 10-fold-dilution steps in assay medium. The final DMSO concentration of the 5× test compound solution was 1%. 20 μL of the 5× test compound solution was added to each test well of the 96 well plate previously plated with 80 μl cell suspension, resulting in the final test concentration with 0.2% DMSO.
The plates were incubated overnight (16-24 hours) at 37° C. and 5% CO2.
For the luciferase readout, the luciferase reagent (Britelite Plus, Perkin Elmer) was brought to RT. […] The luciferase luminescence signal was measured using a Wallac Victor Microplate Reader (Perkin Elmer).
The half maximum inhibitory concentration (IC50) values for the test compounds were calculated from the luciferase signal using GraphPad Prism software (GraphPad Software).

SMILES | IC50 [nM]
CCCS(=O)(=O)c1ccc(CC(=O)Nc2ccc(C(O)(C(F)(F)F)C(F)(F)F)cc2)cc1 [Example 4, N-(4-(1,1,1,3,3,3-hexafluoro-2-hydroxypropan-2-yl)phenyl)-2-(4-(propylsulfonyl)phenyl)acetamide] | ≤ 1000
CCS(=O)(=O)c1ccc(C(C)C(=O)Nc2ccc(C(O)(C(F)(F)F)C(F)(F)F)cc2)cc1 (centres unmarked) [Example 5, 2-(4-(ethylsulfonyl)phenyl)-N-(4-(1,1,1,3,3,3-hexafluoro-2-hydroxypropan-2-yl)phenyl)propanamide] | ≤ 1000
CNS(=O)(=O)c1ccc(CC(=O)Nc2ccc(C(O)(C(F)(F)F)C(F)(F)F)cc2)cc1 [Example 6, N-(4-(1,1,1,3,3,3-hexafluoro-2-hydroxypropan-2-yl)phenyl)-2-(4-(N-methylsulfamoyl)phenyl)acetamide] | ≤ 1000
O=C(Cc1ccc(S(=O)(=O)NC2CC2)cc1)Nc1ccc(C(O)(C(F)(F)F)C(F)(F)F)cc1 [Example 9, 2-(4-(N-cyclopropylsulfamoyl)phenyl)-N-(4-(1,1,1,3,3,3-hexafluoro-2-hydroxypropan-2-yl)phenyl)acetamide] | ≤ 100
CCNS(=O)(=O)c1ccc(CC(=O)Nc2ccc(C(O)(C(F)(F)F)C(F)(F)F)cc2)cc1 [Example 10, 2-(4-(N-ethylsulfamoyl)phenyl)-N-(4-(1,1,1,3,3,3-hexafluoro-2-hydroxypropan-2-yl)phenyl)acetamide] | ≤ 1000
O=C(Cc1cccc(S(=O)(=O)NC2CC2)c1)Nc1ccc(C(O)(C(F)(F)F)C(F)(F)F)cc1 [Example 12, 2-(3-(N-cyclopropylsulfamoyl)phenyl)-N-(4-(1,1,1,3,3,3-hexafluoro-2-hydroxypropan-2-yl)phenyl)acetamide] | ≤ 1000
CCS(=O)(=O)c1ccc(CC(=O)Nc2ccc(C(O)(C(F)(F)F)C(F)(F)F)c(F)c2C)cc1 [Example 15, 2-(4-(ethylsulfonyl)phenyl)-N-(3-fluoro-4-(1,1,1,3,3,3-hexafluoro-2-hydroxypropan-2-yl)-2-methylphenyl)acetamide] | ≤ 1000
CNS(=O)(=O)c1cccc(CC(=O)Nc2ccc(C(O)(C(F)(F)F)C(F)(F)F)cc2)c1 [Example 19, N-(4-(1,1,1,3,3,3-hexafluoro-2-hydroxypropan-2-yl)phenyl)-2-(3-(N-methylsulfamoyl)phenyl)acetamide] | ≤ 1000
CCS(=O)(=O)c1ccc(CC(=O)Nc2ccc(C(O)(C(F)(F)F)C(F)(F)F)cn2)cc1 [Example 21, 2-(4-(ethylsulfonyl)phenyl)-N-(5-(1,1,1,3,3,3-hexafluoro-2-hydroxypropan-2-yl)pyridin-2-yl)acetamide] | ≤ 1000
CCS(=O)(=O)c1ccc(CC(=O)Nc2cc(Cl)c(C(O)(C(F)(F)F)C(F)(F)F)cc2OC)cc1 [Example 22, N-(5-chloro-4-(1,1,1,3,3,3-hexafluoro-2-hydroxypropan-2-yl)-2-methoxyphenyl)-2-(4-(ethylsulfonyl)phenyl)acetamide] | ≤ 1000
CCS(=O)(=O)c1ccc(CC(=O)Nc2c(C)cc(C(O)(C(F)(F)F)C(F)(F)F)cc2C)cc1 [Example 23, 2-(4-(ethylsulfonyl)phenyl)-N-(4-(1,1,1,3,3,3-hexafluoro-2-hydroxypropan-2-yl)-2,6-dimethylphenyl)acetamide] | ≤ 1000
Cc1c(NC(=O)Cc2ccc(S(=O)(=O)NC3CC3)cc2)ccc(C(O)(C(F)(F)F)C(F)(F)F)c1F [Example 26, 2-(4-(N-cyclopropylsulfamoyl)phenyl)-N-(3-fluoro-4-(1,1,1,3,3,3-hexafluoro-2-hydroxypropan-2-yl)-2-methylphenyl)acetamide] | ≤ 1000
CCS(=O)(=O)c1ccc(CC(=O)Nc2ccc(C(O)(C(F)(F)F)C(F)(F)F)cc2F)cc1 [Example 28, 2-(4-(ethylsulfonyl)phenyl)-N-(2-fluoro-4-(1,1,1,3,3,3-hexafluoro-2-hydroxypropan-2-yl)phenyl)acetamide] | ≤ 1000
CCCCOC(c1ccc(NC(=O)Cc2ccc(S(=O)(=O)CC3CC3)cc2)cc1)(C(F)(F)F)C(F)(F)F [Example 52, N-(4-(2-butoxy-1,1,1,3,3,3-hexafluoropropan-2-yl)phenyl)-2-(4-((cyclopropylmethyl)sulfonyl)phenyl)acetamide] | ≤ 100

Continued, values first:

IC50 [nM] | SMILES
≤ 100 | CCS(=O)(=O)c1ccc(CC(=O)Nc2ccc(C(O)(C(F)(F)F)C(F)(F)F)c(C)c2)cc1 [Example 29, 2-(4-(ethylsulfonyl)phenyl)-N-(4-(1,1,1,3,3,3-hexafluoro-2-hydroxypropan-2-yl)-3-methylphenyl)acetamide]
≤ 1000 | CCS(=O)(=O)c1ccc(CC(=O)Nc2ccc(C(O)(C(F)(F)F)C(F)(F)F)cc2C)cc1 [Example 31, 2-(4-(ethylsulfonyl)phenyl)-N-(4-(1,1,1,3,3,3-hexafluoro-2-hydroxypropan-2-yl)-2-methylphenyl)acetamide]
≤ 100 | Cc1cc(NC(=O)Cc2ccc(S(=O)(=O)NC3CC3)cc2)ccc1C(O)(C(F)(F)F)C(F)(F)F [Example 32, 2-(4-(N-cyclopropylsulfamoyl)phenyl)-N-(4-(1,1,1,3,3,3-hexafluoro-2-hydroxypropan-2-yl)-3-methylphenyl)acetamide]
≤ 1000 | Cc1cc(C(O)(C(F)(F)F)C(F)(F)F)ccc1NC(=O)Cc1ccc(S(=O)(=O)NC2CC2)cc1 [Example 34, 2-(4-(N-cyclopropylsulfamoyl)phenyl)-N-(4-(1,1,1,3,3,3-hexafluoro-2-hydroxypropan-2-yl)-2-methylphenyl)acetamide]
≤ 1000 | Cc1cc(NC(=O)Cc2cccc(S(=O)(=O)NC3CC3)c2)ccc1C(O)(C(F)(F)F)C(F)(F)F [Example 36, 2-(3-(N-cyclopropylsulfamoyl)phenyl)-N-(4-(1,1,1,3,3,3-hexafluoro-2-hydroxypropan-2-yl)-3-methylphenyl)acetamide]
≤ 10 | O=C(Cc1ccc(S(=O)(=O)CC2CC2)cc1)Nc1ccc(C(O)(C(F)(F)F)C(F)(F)F)cc1 [Example 37, 2-(4-((cyclopropylmethyl)sulfonyl)phenyl)-N-(4-(1,1,1,3,3,3-hexafluoro-2-hydroxypropan-2-yl)phenyl)acetamide]
≤ 1000 | O=C(Cc1cccc(S(=O)(=O)NC2CC2)c1)Nc1ccc(C(O)(C(F)(F)F)C(F)(F)F)c(F)c1 [Example 38, 2-(3-(N-cyclopropylsulfamoyl)phenyl)-N-(3-fluoro-4-(1,1,1,3,3,3-hexafluoro-2-hydroxypropan-2-yl)phenyl)acetamide]
≤ 1000 | O=C(Cc1cccc(S(=O)(=O)NC2CC2)c1)Nc1ccc(C(O)(C(F)(F)F)C(F)(F)F)cc1F [Example 40, 2-(3-(N-cyclopropylsulfamoyl)phenyl)-N-(2-fluoro-4-(1,1,1,3,3,3-hexafluoro-2-hydroxypropan-2-yl)phenyl)acetamide]
≤ 1000 | CCS(=O)(=O)c1ccc(CC(=O)Nc2ccc(C(O)(C(F)(F)F)C(F)(F)F)cc2)cc1F [Example 42, 2-(4-(ethylsulfonyl)-3-fluorophenyl)-N-(4-(1,1,1,3,3,3-hexafluoro-2-hydroxypropan-2-yl)phenyl)acetamide]
≤ 100 | Cc1cc(C(O)(C(F)(F)F)C(F)(F)F)ccc1NC(=O)Cc1ccc(S(=O)(=O)CC2CC2)cc1 [Example 43, 2-(4-((cyclopropylmethyl)sulfonyl)phenyl)-N-(4-(1,1,1,3,3,3-hexafluoro-2-hydroxypropan-2-yl)-2-methylphenyl)acetamide]
≤ 10 | Cc1cc(NC(=O)Cc2ccc(S(=O)(=O)CC3CC3)cc2)ccc1C(O)(C(F)(F)F)C(F)(F)F [Example 44, 2-(4-((cyclopropylmethyl)sulfonyl)phenyl)-N-(4-(1,1,1,3,3,3-hexafluoro-2-hydroxypropan-2-yl)-3-methylphenyl)acetamide]
≤ 10 | O=C(Cc1ccc(S(=O)(=O)CC2CC2)cc1)Nc1ccc(C(O)(C(F)(F)F)C(F)(F)F)c(F)c1 [Example 45, 2-(4-((cyclopropylmethyl)sulfonyl)phenyl)-N-(3-fluoro-4-(1,1,1,3,3,3-hexafluoro-2-hydroxypropan-2-yl)phenyl)acetamide]
≤ 10 | O=C(Cc1ccc(S(=O)(=O)CC2CC2)cc1)Nc1ccc(C(O)(C(F)(F)F)C(F)(F)F)cc1F [Example 46, 2-(4-((cyclopropylmethyl)sulfonyl)phenyl)-N-(2-fluoro-4-(1,1,1,3,3,3-hexafluoro-2-hydroxypropan-2-yl)phenyl)acetamide]
≤ 1000 | CCOC(c1ccc(NC(=O)Cc2ccc(S(=O)(=O)CC)cc2)cc1)(C(F)(F)F)C(F)(F)F [Example 48, N-(4-(2-ethoxy-1,1,1,3,3,3-hexafluoropropan-2-yl)phenyl)-2-(4-(ethylsulfonyl)phenyl)acetamide]
≤ 100 | CCCOC(c1ccc(NC(=O)Cc2ccc(S(=O)(=O)CC)cc2)cc1)(C(F)(F)F)C(F)(F)F [Example 49, 2-(4-(ethylsulfonyl)phenyl)-N-(4-(1,1,1,3,3,3-hexafluoro-2-propoxypropan-2-yl)phenyl)acetamide]
≤ 1000 | CCS(=O)(=O)c1ccc(CC(=O)Nc2ccc(C(OCc3ccccc3)(C(F)(F)F)C(F)(F)F)cc2)cc1 [Example 50, N-(4-(2-(benzyloxy)-1,1,1,3,3,3-hexafluoropropan-2-yl)phenyl)-2-(4-(ethylsulfonyl)phenyl)acetamide]
≤ 100 | CC(C)OC(c1ccc(NC(=O)Cc2ccc(S(=O)(=O)CC3CC3)cc2)cc1)(C(F)(F)F)C(F)(F)F [Example 51, 2-(4-((cyclopropylmethyl)sulfonyl)phenyl)-N-(4-(1,1,1,3,3,3-hexafluoro-2-isopropoxypropan-2-yl)phenyl)acetamide]
≤ 100 | CCOC(c1ccc(NC(=O)Cc2ccc(S(=O)(=O)CC3CC3)cc2)cc1)(C(F)(F)F)C(F)(F)F [Example 53, 2-(4-((cyclopropylmethyl)sulfonyl)phenyl)-N-(4-(2-ethoxy-1,1,1,3,3,3-hexafluoropropan-2-yl)phenyl)acetamide]
